What was measured:
[1] = tested on: L. (L.) infantum promastigotes; assay: in vitro activity against promastigote forms of L. (L.) infantum; format: cell-based, Leishmania (L.) infantum; conditions: for EC50: Leishmania infantum, L. (L.) infantum promastigotes, read-out: Ec50 Promastigote (μm) ± SD
Procedure: (§1) Evaluation of in vitro activity against promastigote and amastigote forms of L. (L.) infantum was performed as previously reported assays.[40]−[43] The CC50 and EC50 values were calculated using sigmoidal dose–response curves using Graph Pad Prism 5.0 software. One-way ANOVA testing with Tukey’s multiple comparison tests were used for evaluation of the statistical significance (p-value) of differences between the samples, which were tested in duplicate and all assays were repeated at least twice.

[2] = tested on: L. (L.) infantum intracellular amastigotes; assay: ex-vivo assay using intracellular amastigotes of L. (L.) infantum; format: cell-based, Leishmania (L.) infantum; conditions: for EC50: Leishmania infantum, L. (L.) infantum intracellular amastigotes, read-out: Ec50 Amastigote (μm) ± SD; for S.I. amastigote (selectivity index): CC50 against NCTC cells/EC50 against amastigotes
Procedure: as §1

[3] = in vitro mammalian toxicity against NCTC cells; format: cell-based; conditions: 50% cytotoxic concentration, read-out: Cc50 Nctc (μm) ± SD
Procedure: as §1, with “mammalian toxicity” for “activity”, “NCTC cells” for “promastigote and amastigote forms of L. (L.) infantum”, “described.[40] The selectivity index was determined using the following equation: CC50 against NCTC cells/EC50 against amastigotes.[44]” for “reported assays.[40]−[43]”

[4] = tested on: L. (L.) infantum promastigotes; format: cell-based, Leishmania (L.) infantum; conditions: 9 at 141.5 μM, 10 at 110.1 μM, after 240 min
Procedure: Figure 5 Evaluation of ROS in promastigotes of L. (L.) infantum treated with compounds 9 (141.5 μM) or 10 (110.1 μM). […]
Measurements of ROS were conducted as previously reported.[48] Briefly, promastigotes were treated with compounds 9 (141.5 μM) or 10 (110.1 μM) in HBSS+Glu at 24 °C using H2DCFDA (Molecular Probes). Fluorescence was measured using a fluorimetric microplate reader (FilterMax F5Multi-Mode, Molecular Devices) with excitation and emission filters at 485 and 520 nm, respectively.[48] Untreated and treated parasites (H2O2 - 40 μM) were used as negative and positive controls, respectively.

[5] = tested on: L. (L.) infantum promastigotes; format: cell-based, Leishmania (L.) infantum
Text: Changes in the plasma membrane integrity of Leishmania spp. can lead to cell death due to pore formation, pH imbalance, and nutrient-transport failure. Initially, the fluorescent probe Sytox Green was employed to analyze the permeability of the plasma membrane. […] Untreated parasites were used as a negative control for normalization (0% permeabilization) whereas the nonionic surfactant Triton X-100 was used for as positive control (100% permeabilization).
Figure 4 Plasma membrane permeability in L. (L.) infantum promastigotes after 4 h of treatment with compound (A) 9 (141.5 μM) or (B) 10 (110.1 μM), using the fluorescent probe Sytox Green (p < 0.0001). Negative control: untreated parasites; positive control: Triton X-100 (TX-100).
Assays for determination of plasma membrane integrity of L. (L.) infantum were conducted as previously reported.[46] Briefly, compounds 9 (141.5 μM) and 10 (110.1 μM) were added to different wells and the resulting fluorescence was measured using a fluorimetric microplate reader (FilterMax F5Multi-Mode, Molecular Devices). Triton X-100 (0.5%, v/v) and untreated parasites were used as positive negative controls, respectively.[47]

EC50 [1]	EC50 [2]	Compound	activity against promastigotes (in words) [1]	CC50 [3]	S.I. amastigote (selectivity index) [2]	ROS levels compared with negative control (H2DCFDA) [4]	permeabilization of the plasma membrane (Sytox Green) [5]
> 100 µM	> 100 µM	CCC/C=C/CCCNC(=O)c1ccccc1 [Compound 1, (E)-N-(Oct-4-en-1-yl)benzamide]	inactive	> 200 µM	–	–	–
66.9 ± 6.4 µM	> 100 µM	CCC/C=C/CCCNC(=O)c1ccc(C)cc1 [Compound 2, (E)-4-Methyl-N-(oct-4-en-1-yl)benzamide]	–	> 200 µM	–	–	–
> 150 µM	> 100 µM	CCC/C=C/CCCNC(=O)c1ccc(OC)cc1 [Compound 3, (E)-4-Methoxy-N-(oct-4-en-1-yl)benzamide]	inactive	> 200 µM	–	–	–
67.4 ± 1.3 µM	> 100 µM	CCC/C=C/CCCNC(=O)c1ccc(F)cc1 [Compound 4, (E)-4-Fluoro-N-(oct-4-en-1-yl)benzamide]	–	> 200 µM	–	–	–
73.3 ± 4.3 µM	> 100 µM	CCC/C=C/CCCNC(=O)c1ccc(Cl)cc1 [Compound 5, (E)-4-Chloro-N-(oct-4-en-1-yl)benzamides]	–	> 200 µM	–	–	–
66 ± 1 µM	> 100 µM	CCC/C=C/CCCNC(=O)c1ccc(C(C)(C)C)cc1 [Compound 6, (E)-4-(tert-butyl)-N-(oct-4-en-1-yl)benzamide]	–	> 200 µM	–	–	–
49.8 ± 4 µM	> 100 µM	CCC/C=C/CCCNC(=O)c1ccc([N+](=O)[O-])cc1 [Compound 7, (E)-4-Nitro-N-(oct-4-en-1-yl)benzamide]	–	158 ± 37.3 µM	–	–	–
64.1 ± 3.5 µM	> 100 µM	CCCCC(CC)CNC(=O)c1ccc(F)cc1 (centres unmarked) [Compound 8, N-(2-Ethylhexyl)-4-fluorobenzamide]	–	156.8 ± 1 µM	–	–	–
66.3 ± 6 µM	> 100 µM	CCCCC(CC)CNC(=O)c1ccc(C)cc1 (centres unmarked) [Compound 11, N-(2-Ethylhexyl)-4-methylbenzamide]	–	> 200 µM	–	–	–
> 150 µM	5.1 ± 1.9 µM	CCCCC(CC)CNC(=O)c1ccc(C(C)(C)C)cc1 (centres unmarked) [Compound 12, N-(2-Ethylhexyl)-4-(tert-butyl)benzamide]	inactive	> 200 µM	>39.2	–	–
99.4 ± 2.1 µM	95.1 ± 1.5 µM	CCCCCC/C=C/CCc1ccc(O)cc1 [Gibbilimbol B, gibbilimbol B]	–	> 200 µM	>2.1	–	–
5.1 ± 0.6 µM	6.5 ± 3 µM	CCCCCCCCCCCCCCCCOP(=O)([O-])OCC[N+](C)(C)C [Miltefosine, miltefosine, reference compound]	–	120 ± 4.2 µM	18.4	–	–
–	–	[N-]=[N+]=[N-].[Na+] [Sodium azide, reference compound]	–	–	–	maximum production of ROS	–
–	–	Triton X-100 [reference compound]	–	–	–	–	maximum permeabilization

Reference: publication PMC11541474, “Toward New Therapeutics for Visceral Leishmaniasis: Efficacy and Mechanism of Action of Amides Inspired by Gibbilimbol B” (ACS Omega, 2024)
